In the test the test system is APF activity on primary normal bladder epithelial cells. The experiment in a line: Blocking of APF antiproliferative activity by recombinant growth factors (^3H-thymidine incorporation). The test is classed as cell-based, human. The following applies: co-incubation with low molecular weight IC urine fractions; HB-EGF 10, 30 and 100 ng/ml; EGF, IGF1 up to about 12 and 25 fold normal levels. Here is the method: ^3H-Thymidine Incorporation. Primary normal adult human bladder epithelial cells (HBE) were grown from biopsies obtained at autopsy from patients who had no history of bladder disorder. HBE cells were plated at a density of 1×10^4 cells/well onto 96 well tissue culture plates and incubated at 37° C. overnight (resulting in approximately 60% confluence the following day). The medium was then changed to MEM containing only 1% glutamine and 1% antibiotic/ antimycotic solution, and the cells were incubated at 37° C. overnight. […] Cells were then trypsinized, and insoluble cell contents harvested and methanol-fixed onto glass fiber filter paper, as previously described^62; the amount of radioactivity incorporated was determined as counts per minute using a Beckman LS 3801 scintillation counter. […]
To determine whether the antiproliferative effect of the APF on bladder epithelial cells might be due to a decrease in HB-EGF production, primary normal bladder epithelial cells were simultaneously incubated with varying levels of recombinant HB-EGF, EGF, or IGF1 and low molecular weight urine fractions from IC patients. […] This effect was evident using a concentration of HB-EGF (10 ng/ml) in the range previously determined for normal controls (2-22 ng/ml, mean 6.33 ng/ml) 12 as well as higher concentrations (30 and 100 ng/ml). […]
Background: Dividing cells build labelled thymidine or BrdU into new DNA.

Turning to epidermal growth factor [EGF], the “inhibition of IC urine antiproliferative activity by recombinant growth factor” value is given as “insufficient to completely inhibit APF activity”.
On to insulin-like growth factor 1 [IGF1], for which the “inhibition of IC urine antiproliferative activity by recombinant growth factor” value is reported as “insufficient to completely inhibit APF activity”.

Values taken from patent US20020016443A1, “Antiproliferative factor” (priority 1996, published 2002).
